This assay deals with T1, recombinant guanylate cyclase reporter cell line (Rattus norvegicus, UniProt P19686+P20595).
T1 construct: expressed in transfected cells
T1 sequence (P20595 1-619): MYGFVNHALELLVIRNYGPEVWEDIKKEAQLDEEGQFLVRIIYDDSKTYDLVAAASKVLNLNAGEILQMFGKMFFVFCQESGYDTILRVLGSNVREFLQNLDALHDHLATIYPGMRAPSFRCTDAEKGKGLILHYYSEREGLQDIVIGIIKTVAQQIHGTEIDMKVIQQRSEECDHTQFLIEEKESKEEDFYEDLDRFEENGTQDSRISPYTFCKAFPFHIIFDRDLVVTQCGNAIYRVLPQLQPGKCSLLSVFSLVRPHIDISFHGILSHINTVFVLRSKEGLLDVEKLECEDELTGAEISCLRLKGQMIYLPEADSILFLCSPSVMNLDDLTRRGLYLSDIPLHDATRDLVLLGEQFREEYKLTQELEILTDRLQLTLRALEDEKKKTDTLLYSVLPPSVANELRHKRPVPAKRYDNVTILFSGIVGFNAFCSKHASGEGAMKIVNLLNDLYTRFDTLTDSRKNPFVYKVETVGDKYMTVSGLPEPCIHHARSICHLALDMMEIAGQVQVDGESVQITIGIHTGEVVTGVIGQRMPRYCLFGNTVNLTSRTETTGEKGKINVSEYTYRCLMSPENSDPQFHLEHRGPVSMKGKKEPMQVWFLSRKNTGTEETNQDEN
T1 sequence (P19686 1-690): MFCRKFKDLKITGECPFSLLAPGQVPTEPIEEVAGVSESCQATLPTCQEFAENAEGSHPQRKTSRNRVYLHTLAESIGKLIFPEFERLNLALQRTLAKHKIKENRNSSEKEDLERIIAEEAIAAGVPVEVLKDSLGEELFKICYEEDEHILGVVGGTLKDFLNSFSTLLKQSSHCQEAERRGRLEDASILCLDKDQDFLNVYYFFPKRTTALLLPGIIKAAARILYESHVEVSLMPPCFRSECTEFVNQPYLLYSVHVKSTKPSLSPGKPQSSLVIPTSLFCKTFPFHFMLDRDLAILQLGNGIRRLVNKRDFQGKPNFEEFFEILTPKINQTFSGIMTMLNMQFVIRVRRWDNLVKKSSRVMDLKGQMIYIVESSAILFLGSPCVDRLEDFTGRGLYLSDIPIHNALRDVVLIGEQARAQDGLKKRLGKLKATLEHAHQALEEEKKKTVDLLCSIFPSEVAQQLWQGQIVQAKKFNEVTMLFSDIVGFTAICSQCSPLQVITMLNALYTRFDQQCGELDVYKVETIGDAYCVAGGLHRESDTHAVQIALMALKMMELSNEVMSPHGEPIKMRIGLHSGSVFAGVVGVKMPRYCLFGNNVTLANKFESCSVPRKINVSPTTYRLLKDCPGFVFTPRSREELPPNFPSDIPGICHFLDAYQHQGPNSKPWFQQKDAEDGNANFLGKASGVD
Put plainly: B-2. Action on recombinant guanylate cyclase reporter cell line. As to conditions: MEC = minimal effective concentration; in some cases mean values from individual determinations. In kind it is cell-based. Put shortly: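 Cellular activity was measured in a reporter cell line expressing recombinant guanylate cyclase. Values are given as MEC, the minimal effective concentration, and some are means of individual determinations.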

Molecules are shown by their SMILES.

For `Cc1nc2c(OCc3c(F)cccc3F)cccn2c1C(=O)N[C@@H](C)CN1CCOCC1` [Example 171, 8-[(2,6-difluorobenzyl)oxy]-2-methyl-N-[(2S)-1-(morpholin-4-yl)propan-2-yl]imidazo[1,2-a]-pyridine-3-carboxamide], the MEC was 1.00 µM.

With `Cc1cc(OCc2c(F)cccc2F)c2nc(C)c(C(=O)NC[C@@H]3CCCCN3)n2c1` [Example 172, 8-[(2,6-Difluorobenzyl)oxy]-2,6-dimethyl-N-[(2S)-piperidin-2-ylmethyl]imidazo[1,2-a]pyridine-3-carboxamide], the MEC came to 0.30 µM.

Turning to `Cc1cc(OCc2c(F)cccc2F)c2nc(C)c(C(=O)NC[C@H]3CCCCN3)n2c1` [Example 173, 8-[(2,6-Difluorobenzyl)oxy]-2,6-dimethyl-N-[(2R)-piperidin-2-ylmethyl]imidazo[1,2-a]pyridine-3-carboxamide], the MEC turned out to be 0.30 µM.

Consider `Cc1cc(OCc2c(F)cccc2F)c2nc(C)c(C(=O)NCC3(N)COC3)n2c1` [Example 216, N-[(3-Aminooxetan-3-yl)methyl]-8-[(2,6-difluorobenzyl)oxy]-2,6-dimethylimidazo[1,2-a]pyridine-3-carboxamide], for which the MEC worked out at 1.00 µM.

Turning to `Cc1cc(OCc2c(F)cccc2F)c2nc(C)c(C(=O)N[C@@H]3CCCC[C@H]3N)n2c1` [Example 251, ent-N-[(1R,2R)-2-Aminocyclohexyl]-8-[(2,6-difluorobenzyl)oxy]-2,6-dimethylimidazo[1,2-a]-pyridine-3-carboxamide], the MEC is 3.00 µM.

For `CCC(N)(CC)CNC(=O)c1c(C)nc2c(OCc3c(F)cccc3F)cccn12` [Example 253, N-(2-Amino-2-ethylbutyl)-8-[(2,6-difluorobenzyl)oxy]-2-methylimidazo[1,2-a]pyridine-3-carboxamide], the MEC is 0.10 µM.

`Cc1cc(OCc2c(F)cccc2F)c2nc(C)c(C(=O)NCCNC(C)(C)C)n2c1` [Example 255, N-[2-(tert-Butylamino)ethyl]-8-[(2,6-difluorobenzyl)oxy]-2,6-dimethylimidazo[1,2-a]pyridine-3-carboxamide]: the MEC turned out to be 0.30 µM.

In the case of `CCCC(C)(N)CNC(=O)c1c(C)nc2c(OC(C)c3c(F)cccc3F)cc(C)cn12` (centres unmarked) [Example 257, N-(2-Amino-2-methylpentyl)-8-[1-(2,6-difluorophenyl)ethoxy]-2,6-dimethylimidazo[1,2-a]-pyridine-3-carboxamide], the MEC is 1.00 µM.

As for `Cc1cc(OCc2c(F)ccc(F)c2F)c2nc(C)c(C(=O)NCC(C)(C)N)n2c1` [Example 276, N-(2-Amino-2-methylpropyl)-2,6-dimethyl-8-[(2,3,6-trifluorobenzyl)oxy]imidazo[1,2-a]pyridine-3-carboxamide], the MEC is 0.10 µM.

In the case of `COC(=O)[C@@H](N)CCCCNC(=O)c1c(C)nc2c(OCc3c(F)cccc3F)cc(C)cn12` [Example 294, Methyl N^6-({8-[(2,6-difluorobenzyl)oxy]-2,6-dimethylimidazo[1,2-a]pyridin-3-yl}carbonyl)-L-lysinate], the MEC amounted to 0.065 µM.

Take `CCCC(C)(N)CNC(=O)c1c(C(F)(F)F)nc2c(OCc3c(F)cccc3F)cc(C)cn12` (stereo not drawn) [Example 305, ent-N-(2-amino-2-methylpentyl)-8-[(2,6-difluorobenzyl)oxy]-6-methyl-2-(trifluoromethyl)imidazo[1,2-a]pyridine-3-carboxamide]: the MEC was found to be 0.10 µM.

Turning to `CCCC(C)(N)CNC(=O)c1c(C)nc2c(OCc3c(F)cccc3F)cc(Br)cn12` (stereo not drawn) [Example 306, ent-N-(2-amino-2-methylpentyl)-6-bromo-8-[(2,6-difluorobenzyl)oxy]-2-methylimidazo[1,2-a]pyridine-3-carboxamide], the MEC came to 0.10 µM.

For the compound `Cc1cc(OCc2c(F)cccc2F)c2nc(C)c(C(=O)NCC3(N)CCCCC3)n2c1` [Example 307, N-[(1-aminocyclohexyl)methyl]-8-[(2,6-difluorobenzyl)oxy]-2,6-dimethylimidazo[1,2-a]pyridine-3-carboxamide], the MEC is 0.65 µM.

As for `Cc1cc(OCc2c(F)cccc2F)c2nc(C)c(C(=O)N[C@H]3C[C@H]4CN(C)CCN4C3)n2c1` [Example 314, 8-[(2,6-Difluorobenzyl)oxy]-2,6-dimethyl-N-[(7S,8aS)-2-methyloctahydropyrrolo[1,2-a]pyrazin-7-yl]imidazo[1,2-a]pyridine-3-carboxamide], the MEC came out at 0.30 µM.

In the case of `CCC(C)(CN)NC(=O)c1c(C)nc2c(OCc3c(F)ccc(F)c3F)cc(C)cn12` (stereo not drawn) [Example 315, ent-N-(1-amino-2-methylbutan-2-yl)-2,6-dimethyl-8-[(2,3,6-trifluorobenzyl)oxy]imidazo[1,2-a]pyridine-3-carboxamide], the MEC came to 0.30 µM.

As for `CCCC(C)(N)CNC(=O)c1c(C)nc2c(OCc3c(F)cccc3F)cccn12` (stereo not drawn) [Example 318, ent-N-(2-amino-2-methylpentyl)-8-[(2,6-difluorobenzyl)oxy]-2-methylimidazo[1,2-a]pyridine-3-carboxamide], the MEC stood at 0.30 µM.

For the compound `COC(=O)[C@@H](N)CNC(=O)c1c(C)nc2c(OCc3c(F)cccc3F)cc(C)cn12` [Example 319, Methyl 3-[({8-[(2,6-difluorobenzyl)oxy]-2,6-dimethylimidazo[1,2-a]pyridin-3-yl}carbonyl)amino]-L-alaninate], the MEC amounted to 0.30 µM.

On to `CCCC(C)(N)CNC(=O)c1c(C2CC2)nc2c(OCc3c(F)cccc3F)cc(C)cn12` (stereo not drawn) [Example 322, ent-N-(2-amino-2-methylpentyl)-2-cyclopropyl-8-[(2,6-difluorobenzyl)oxy]-6-methylimidazo[1,2-a]pyridine-3-carboxamide], for which the MEC is 0.30 µM.

In the case of `CCCC(C)(N)CNC(=O)c1c(C)nc2c(OCc3c(F)cccc3F)cc(CC)cn12` (stereo not drawn) [Example 323, ent-N-(2-amino-2-methylpentyl)-8-[(2,6-difluorobenzyl)oxy]-6-ethyl-2-methylimidazo[1,2-a]pyridine-3-carboxamide], the MEC was determined as 0.30 µM.

With `Cc1cc(OCc2c(F)cccc2F)c2nc(C)c(C(=O)N[C@@H]3CC[C@](C)(N)C3(C)C)n2c1` [Example 324, N-[(1R,3S)-3-amino-2,2,3-trimethylcyclopentyl]-8-[(2,6-difluorobenzyl)oxy]-2,6-dimethylimidazo[1,2-a]pyridine-3-carboxamide], the MEC worked out at 1.00 µM.

`CCCc1nc2c(OCc3c(F)cccc3F)cc(C)cn2c1C(=O)NCC(C)(N)CC` (stereo not drawn) [Example 327, ent-N-(2-amino-2-methylbutyl)-8-[(2,6-difluorobenzyl)oxy]-6-methyl-2-propylimidazo[1,2-a]pyridine-3-carboxamide]: the MEC was 1.00 µM.

Take `CCCC(C)(N)CNC(=O)c1c(CC)nc2c(OCc3c(F)cccc3F)cc(C)cn12` (stereo not drawn) [Example 338, ent-N-(2-amino-2-methylpentyl)-8-[(2,6-difluorobenzyl)oxy]-2-ethyl-6-methylimidazo[1,2-a]pyridine-3-carboxamide]: the MEC stood at 0.10 µM.

Consider `Cc1cc(OCc2c(F)cccc2F)c2nc(C)c(C(=O)NCC(C)(C)NCCO)n2c1` [Example 349, 8-[(2,6-Difluorobenzyl)oxy]-N-{2-[(2-hydroxyethyl)amino]-2-methylpropyl}-2,6-dimethylimidazo[1,2-a]pyridine-3-carboxamide], for which the MEC was determined as 1.00 µM.

Consider `COc1cccc(F)c1COc1cc(C)cn2c(C(=O)NCC(C)(C)N)c(C)nc12` [Example 352, N-(2-amino-2-methylpropyl)-8-[(2-fluoro-6-methoxybenzyl)oxy]-2,6-dimethylimidazo[1,2-a]pyridine-3-carboxamide], for which the MEC amounted to 3.00 µM.

On to `CCCC(C)(N)CNC(=O)c1c(C)nc2c(OCc3ccccc3Br)cc(C)cn12` (centres unmarked) [Example 353, N-(2-amino-2-methylpentyl)-8-[(2-bromobenzyl)oxy]-2,6-dimethylimidazo[1,2-a]pyridine-3-carboxamide], for which the MEC was determined as 3.00 µM.

Regarding `CCCC(C)(N)CNC(=O)c1cnc2c(OCc3c(F)cccc3F)cccn12` (stereo not drawn) [Example 354, ent-N-(2-amino-2-methylpentyl)-8-[(2,6-difluorobenzyl)oxy]imidazo[1,2-a]pyridine-3-carboxamide], the MEC was determined as 3.00 µM.
